target: T1, GRK2 (βARK-1) (Homo sapiens, UniProt P25098); assay: GRK2 (βARK-1) kinase assay: 33P phosphorylation of biotinylated bovine tubulin dimers, scintillation counting; assay type: biochemical; details: 100 nM GRK2 pre-incubated with inhibitor 30 min at room temperature; 250 nM tubulin, 3 μM ATP, [γ-33P]-ATP, 30 min reaction
T1 sequence (P25098 1-689): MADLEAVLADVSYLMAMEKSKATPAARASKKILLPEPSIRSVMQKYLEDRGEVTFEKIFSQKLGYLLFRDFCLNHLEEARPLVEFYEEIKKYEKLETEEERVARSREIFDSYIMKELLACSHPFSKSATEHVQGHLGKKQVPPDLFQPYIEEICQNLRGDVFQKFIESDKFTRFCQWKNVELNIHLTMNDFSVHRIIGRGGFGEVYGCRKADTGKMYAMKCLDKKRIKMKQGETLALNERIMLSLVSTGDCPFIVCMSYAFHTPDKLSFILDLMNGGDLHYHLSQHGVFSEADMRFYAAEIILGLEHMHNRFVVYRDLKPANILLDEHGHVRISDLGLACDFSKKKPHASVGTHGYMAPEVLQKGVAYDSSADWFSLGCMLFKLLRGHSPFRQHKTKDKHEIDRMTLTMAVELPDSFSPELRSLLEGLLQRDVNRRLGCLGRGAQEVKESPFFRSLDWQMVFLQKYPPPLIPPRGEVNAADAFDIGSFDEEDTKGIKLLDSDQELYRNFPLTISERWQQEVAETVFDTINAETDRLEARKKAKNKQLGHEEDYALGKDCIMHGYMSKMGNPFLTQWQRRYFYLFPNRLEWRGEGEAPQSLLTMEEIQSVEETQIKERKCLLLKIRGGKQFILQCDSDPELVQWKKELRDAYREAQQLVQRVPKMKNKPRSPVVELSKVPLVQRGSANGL
Description: The assay determines phosphorylation of biotinylated bovine tubulin dimers (250 nM; TEBU-BIO, # T333) coated to 384 well StreptaWell plates by 100 nM GRK2 which has been pre-incubated with inhibitor cpd. for 30 minutes at room temperature in assay buffer (20 mM Tris-HCl pH 7.4, 2 mM EDTA) containing 2.25% DMSO. The phosphorylation reaction was started by adding tubulin, MgCl2 (10 mM), ATP (3 μM), [γ-^33P]-ATP (0.4 μCi/40 μl) to the preincubated GRK2/compound complex. Then the assay mix was incubated for 30 min at room temperature before the kinase reaction was stopped adding 0.8% BSA, 0.8% Triton X 100, 80 mM EDTA and 400 μM ATP) followed by an 2-24 h incubation at +4° C. Due to the high energy of the […] free ^33P-ATP is removed by a washing step (3× with 100 μl 1×PBS pH 8.0) using a Tecan Power washer 384 to reduce background activity. Bound ^33P is determined by scintillation counting (60 μl scintillator, Ultimagold MV, 30 sec mix) using a Microbeta-counter (delay time 30 min).

In order of rising IC50:
1. Cn1cc(-c2cc(C(N)=O)nc3[nH]ncc23)c2cc(OCC(N)=O)ccc21 [Example 8, 4-(5-Carbamoylmethoxy-1-methyl-1H-indol-3-yl)-1H-pyrazolo[3,4-b]pyridine-6-carboxylic acid amide]  0.02 µM
2. Cn1cc(-c2cc(C(N)=O)nc3[nH]ncc23)c2ccccc21 [Example 4]  0.27 µM
3. Cn1cc(-c2cc(C(N)=O)nc3[nH]ncc23)c2cc(OCC3CCCNC3)ccc21 (stereo not shown) [Example 3, 4-(1-methyl-5-(piperidin-3-ylmethoxy)-1H-indol-3-yl)-1H-pyrazolo(3,4-b)pyridine-6-carboxylic acid amide]  0.7 µM
4. NC(=O)c1cc(-c2cccc(O)c2)c2cn[nH]c2n1 [Example 16]  2.1 µM

Reference: US7910602B2 (Sanofi-Aventis, priority 2005, dated 2011)
